Results on four molecules are retold here after article PMC3478282, “Probing the Putative Active Site of YjdL: An Unusual Proton-Coupled Oligopeptide Transporter from E. coli” (PLoS ONE, 2012).

What all share (type): cell-based, E. coli
Experiment [1] addresses T1, YjdL Tyr58Phe (Escherichia coli, UniProt P39276, Y58F).
T1 construct: expressed in transfected cells; host or cells: E. coli BL21(DE3)pLysS, pTTQ18-yjdL mutant (QuikChange)
T1 sequence (P39276 1-485 Y58F): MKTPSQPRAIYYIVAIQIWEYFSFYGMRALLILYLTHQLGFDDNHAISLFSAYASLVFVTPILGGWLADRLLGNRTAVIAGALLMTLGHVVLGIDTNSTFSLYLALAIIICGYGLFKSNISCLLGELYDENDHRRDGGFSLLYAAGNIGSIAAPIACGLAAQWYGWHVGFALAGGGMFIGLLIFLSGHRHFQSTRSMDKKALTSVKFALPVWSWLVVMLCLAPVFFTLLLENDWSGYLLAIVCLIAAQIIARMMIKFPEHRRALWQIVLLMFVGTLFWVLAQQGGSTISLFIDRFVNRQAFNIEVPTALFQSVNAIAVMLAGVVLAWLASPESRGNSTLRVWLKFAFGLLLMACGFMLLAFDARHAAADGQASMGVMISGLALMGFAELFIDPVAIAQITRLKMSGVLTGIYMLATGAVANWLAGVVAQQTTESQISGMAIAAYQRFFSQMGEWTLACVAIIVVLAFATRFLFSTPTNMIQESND
Kind of experiment: β-Ala-Lys(AMCA) uptake and inhibition assay, YjdL Tyr58Phe. The conditions noted are these: for IC50: 0.5 mM β-Ala-Lys(AMCA), 15 min incubation, pH 6.5, ±SEM, n≥3, read-out: IC50 (inhibition of β-Ala-Lys(AMCA) uptake), Tyr58Phe b. The protocol:
(§1) Plasmids were transformed into E. coli BL21(DE3)pLysS cells by heat shock and transformants were selected on agar plates containing 100 µg/mL ampicillin and 34 µg/mL chloramphenicol. Single transformants were inoculated into 2 mL LB-media with antibiotics as above and grown overnight. The cultures were diluted 1∶50 in 5 mL LB-media with antibiotics as above, and at an OD600 of 0.5–0.8 protein expression was induced by the addition of 1 mM isopropyl β-D-1-thiogalactopyranoside (IPTG). The cells were harvested after three hours of induction by centrifugation and resuspended in uptake buffer (50 mM MES pH 6.5, 140 mM NaCl, 5.4 mM KCl, 1.8 mM CaCl2, 0.8 mM MgSO4, and 5 mM glucose).
(§2) Uptake assays were performed as previously described, [20]. In a final assay volume of 100 µL; 0.2 mM β-Ala-Lys-N-7-amino-4-methylcoumarin-3-acetic acid (β-Ala-Lys(AMCA), Biotrend) (10 µL) and various concentrations of ligands (purchased from Bachem or Sigma-Aldrich) or uptake buffer (50 µL) were incubated with bacterial cell suspension (OD600 = 10, 40 µL) at 37°C. After 5 min, the uptake was stopped by addition of 500 µL ice-cold uptake buffer followed by immediate centrifugation and washing twice in ice-cold uptake buffer. Finally the cell pellet was resuspended in 100 µL uptake buffer, and the uptake was quantified by fluorescence measurements (excitation at 340 nm and emission at 460 nm) on a Safire 2 fluorimeter. Non-specific uptake was measured as described above on IPTG-induced E. coli BL21(DE3)pLysS cells harboring the empty pTTQ18 vector. All uptake assay experiments were reproduced at least three times independently and data analyses were performed using GraphPad Prism ver. 5.

Experiment [2] has as its target T2, WT-YjdL (Escherichia coli, UniProt P39276).
T2 construct: expressed in transfected cells; host or cells: E. coli BL21(DE3)pLysS, pTTQ18-yjdL, IPTG-induced
T2 sequence (P39276 1-485): T1 sequence (P39276 1-485 Y58F) with F58Y
The experiment in a line: cell-based. The conditions noted are these: for IC50: IC50 (inhibition of β-Ala-Lys(AMCA) uptake). On the procedure: Plasmids were transformed into E. coli BL21(DE3)pLysS cells by heat shock and transformants were selected on agar plates containing 100 µg/mL ampicillin and 34 µg/mL chloramphenicol. Single transformants were inoculated into 2 mL LB-media with antibiotics as above and grown overnight. The cultures were diluted 1∶50 in 5 mL LB-media with antibiotics as above, and at an OD600 of 0.5–0.8 protein expression was induced by the addition of 1 mM isopropyl β-D-1-thiogalactopyranoside (IPTG). […]
as §2

The target in experiment [3] is T3, YjdL Trp278Phe (Escherichia coli, UniProt P39276, W278F).
T3 construct: host or cells: E. coli BL21(DE3)pLysS
T3 sequence (P39276 1-485 W278F): T1 sequence (P39276 1-485 Y58F) with F58Y, W278F
The experiment in a line: β-Ala-Lys(AMCA) uptake and inhibition assay, YjdL Trp278Phe. The conditions noted are these: 0.2 mM β-Ala-Lys(AMCA), 5 min incubation, pH 6.5; ±SEM, n≥3. The protocol:
as §1, §2

Substitutions are numbered along the chain they refer to. Residues, ends and D or L forms follow the SMILES beside them.

What is called IC50 is the concentration needed to halve the response being measured. On to `C[C@H](N)C(=O)N[C@@H](C)C(=O)O` [Ala-Ala] (H-Ala-Ala-OH), for which the IC50 in experiment [1] amounted to 28100 ± 5000 µM; in experiment [2] (WT-YjdL a), 2800 ± 600 µM; in experiment [2] (WT-YjdL b) it was 2200 ± 100 µM; in experiment [3], 9900 ± 1000 µM. Besides, the “IC50 at pH 6.5 (50 mM MES) relative to previous studies at pH 7.4 (25 mM Tris/HEPES), WT-YjdL” value in experiment [2] is “eight”.
On to `C[C@H](N)C(=O)N[C@@H](CCCCN)C(=O)O` [Ala-Lys] (H-Ala-Lys-OH), for which the half-inhibitory concentration (IC50) in experiment [1] is above 50000 µM; in experiment [2] (WT-YjdL a) it was 280 ± 10 µM; in experiment [2] (WT-YjdL b), 890 ± 160 µM; in experiment [3] it was 380 µM.
Turning to `C[C@H](NC(=O)[C@@H](N)Cc1ccc(O)cc1)C(=O)O` [Tyr-Ala], the IC50 is 24100 ± 2800 µM in experiment [1], 2400 ± 400 µM in experiment [2] (WT-YjdL a), 2400 ± 200 µM in experiment [2] (WT-YjdL b) and 2800 ± 400 µM in experiment [3]. In addition, the “IC50 at pH 6.5 (50 mM MES) relative to previous studies at pH 7.4 (25 mM Tris/HEPES), WT-YjdL” value in experiment [2] is reported as “same”.
Regarding “β-Ala-Lys-N-7-amino-4-methylcoumarin-3-acetic acid [β-Ala-Lys(AMCA)]”, the “β-Ala-Lys(AMCA) uptake level, YjdL Tyr58Phe” value in experiment [1] (0.2 mM, 5 min, pH 6.5 (Figure 3)) is 7%. In experiment [2] (WT YjdL, data not shown), this molecule displayed a Kt of around 5 mM.
